Test results: patent US20040063651A1, “Remedies for hepatitis c” (priority 2000, published 2004)

Tests used:
Hepatitis C Virus (HCV) = experiment: Inhibitory effect on HCV proliferation in infected MT-2C cells (nested RT-PCR detection limit dilution of HCV genome); assay type: cell-based; settings: for detection of HCV genome in diluted RT product: FIG. 2, negative control detected up to 10-fold or 30-fold dilution
Method: Inhibitory effect on HCV proliferation of the compounds of Synthetic Example 1, Synthetic Example 2, Synthetic Example 10 and Synthetic Example 11 described above was measured by the following process.
Measurement of anti HCV proliferation inhibitory activity was performed in accordance with a known process (Kato, N. et. al., Biochem. Biophs. Res. Commun. 206, 863-869, 1995).
(§1) MT-2C cells that are cells derived from human T cells (Kato, N. et. al., Biochem. Biophs. Res. Commun. 206, 863-869, 1995) were cultured in an RPMI 1640 medium (Gibco-BRL 11875-101) supplemented with FBS (Foetal Bovine Serum, Gibco-BRL10082-147) at 10%. Thus cultured MT-2C cells (1×10^6 cells) were suspended in 200 uL of an F-12 medium (Gibco-BRL 11059-029) added with EDTA (ethylenediamine tetraacetic acid) to yield final concentration of 5 mM. Thereto was added 20 μL of a serum derived from a hepatitis C patient, followed by infection at 37° C. for 2 hours. After the infection, the cells were washed three times with 1 mL of PBS (Phosphate buffered saline), suspended in 6 mL of an RPMI medium added with FBS at 10%. The suspended cells were seeded on a 48 well culture plate, and incubated in a CO2 incubator at 32° C. for 3 days.
Thereto was added the compound of Synthetic Example 1, Synthetic Example 2, Synthetic Example 10 or Synthetic Example 11 dissolved in DMSO (Dimethyl Sulfoxide) in an amount of thousandths of the medium, and the mixture was cultured for 3 days. A medium adjusted to have the same concentration of the identical compound was added to each well in a two-fold volume, followed by an additional culture for 4 days. Cells were harvested for each of the samples, and total cellular RNA was purified. For the RNA purification, ISOGEN (NIPPON GENE, 311-02501) was used. In order to quantitatively determine an HCV RNA genome in the purified RNA, the following operation was carried out.
Using 1 μg of the purified RNA, a reverse transcription reaction was performed in a total volume of 20 uL at 37° C. for 1 hour. Subsequently, an inactivation treatment of the reverse transcriptase was carried out at 100° C. for 30 minutes. SuperScript™ II (Gibco BRL 18064-014) was used as a reverse. transcriptase, and an oligoDNA (Gibco BRL) having 20 bases which are complementary to the sequence of base position 317 through base position 336 of HCV-J strain (Kato, N. et. al. Proc. Natl. Acad. Sci. USA 87, 9524-9528, 1990) was used as a primer.
Product of the reverse transcription reaction was diluted to 3-fold, 10-fold, 30-fold and 100-fold with sterilized and distilled water. First PCR (Polymerase Chain Reaction), (34 cycles of: at 94° C. for 1 minute, at 58° C. for 45 seconds and at 72° C. for 1 minute; and 1 cycle of: at 94° C. for 1 minute, at 58° C. for 1 minute and 40 seconds and at 72° C. for 8 minutes) was performed in a total volume of 50 μL using 3 μL of the diluted product of the reverse transcription reaction. EX-Taq (TAKARA RR001A) was used as a DNA synthetase, while an oligoDNA (GibcoBRL) having 20 bases which correspond to the sequence of base position 71 through base position 90 and an oligoDNA (Gibco BRL) having 20 bases which are complementary to the sequence of base position 317 through base position 336 of HCV-J strain were used as primers. […]

MT-2C cells = experiment: Yield of total cellular RNA of HCV-infected MT-2C cells (cell injury); assay type: cell-based, human; settings: 0.1-10 μM compound, 7 days culture
Method: as §1, with “days. Thereto was added the compound of Synthetic Example 1, Synthetic Example 2, Synthetic Example 10 or Synthetic Example 11 dissolved in DMSO (Dimethyl Sulfoxide) in an amount of thousandths of the medium, and the mixture was cultured for 3 days. A medium adjusted to have the same concentration of the identical compound was added to each well in a two-fold volume, followed by an additional culture for 4 days. Cells were harvested for each of the samples, and total cellular RNA was purified. For the RNA purification, ISOGEN (NIPPON GENE, 311-02501) was used. In order to quantitatively determine an HCV RNA genome in the purified RNA, the following operation was carried out.” for “days.”

[1] = system: proximate viruses of the hepatitis C virus (viruses having (+)-chain single stranded RNA in their genome); settings: cited from earlier work
HCV RNA polymerase = molecular target: T1, HCV RNA polymerase (Hepatitis C virus genotype 1b, UniProt Q9WMX2); experiment: Inhibitory effect on HCV RNA polymerase activity ([α-32P]UTP incorporation, poly(A)/oligo(U)); assay type: biochemical; settings: 10 uM UTP, 30° C. for 30 minutes; read-out: 50% inhibitory concentration for HCV RNA polymerase
T1 construct: Expression and purification of HCV RNA polymerase were performed in accordance with known processes; made in house
Method: Inhibitory effect on an HCV RNA polymerase activity of the compounds of Synthetic Example 12, Synthetic Example 13, Synthetic Example 19, Synthetic Example 21 and Synthetic Example 22 described above was measured by the following process.
Expression and purification of HCV RNA polymerase were performed in accordance with known processes (V. Lohman et al., VIROLOGY, 249, 108-118, 1998).
The purified HCV RNA polymerase in an amount of 200 ng was mixed with 100 ng/mL poly(A)RNA (polyadenine RNA) as a template RNA and 25 ng/mL 15-mer oligo(U)RNA (oligouridine having 15 bases, TAKARA Shuzo) as a primer RNA in 50 μL of an aqueous solution containing 20 mM Tris-Cl (pH 7.5), 5 MM MgCl2, 25 mM KCl, 10 uM UTP (Uridine-triphosphate), 0.25 Ci/mL [α-^32P]UTP (Amersham, PB10203). Then, thereto was added the compound of Synthetic Example 12, Synthetic Example 13, Synthetic Example 19, Synthetic Example 21 or Synthetic Example 22, followed by an RNA synthetic reaction at 30° C. for 30 minutes.
After completing the reaction, RNA in the solution was absorbed on DE81 paper (Whattman). Then, [α-^32P]UTP which was not incorporated into the synthesized RNA was washed out with 0.5 M phosphate buffer, and the quantity of [α-^32P]UTP which was incorporated into the synthesized RNA on the DE81 paper was determined on a liquid scintillation counter.
Inhibitory potency of the compounds of Synthetic Example 12, Synthetic Example 13, Synthetic Example 19, Synthetic Example 21 and Synthetic Example 22 was represented by 50% inhibitory concentration when the negative control without HCV RNA polymerase was assumed as 0% while the positive control without the compound was assumed as 100%.

hepatitis C = settings: medical treatment of hepatitis C; cited from earlier work

T1 sequence (Q9WMX2 2420-3010): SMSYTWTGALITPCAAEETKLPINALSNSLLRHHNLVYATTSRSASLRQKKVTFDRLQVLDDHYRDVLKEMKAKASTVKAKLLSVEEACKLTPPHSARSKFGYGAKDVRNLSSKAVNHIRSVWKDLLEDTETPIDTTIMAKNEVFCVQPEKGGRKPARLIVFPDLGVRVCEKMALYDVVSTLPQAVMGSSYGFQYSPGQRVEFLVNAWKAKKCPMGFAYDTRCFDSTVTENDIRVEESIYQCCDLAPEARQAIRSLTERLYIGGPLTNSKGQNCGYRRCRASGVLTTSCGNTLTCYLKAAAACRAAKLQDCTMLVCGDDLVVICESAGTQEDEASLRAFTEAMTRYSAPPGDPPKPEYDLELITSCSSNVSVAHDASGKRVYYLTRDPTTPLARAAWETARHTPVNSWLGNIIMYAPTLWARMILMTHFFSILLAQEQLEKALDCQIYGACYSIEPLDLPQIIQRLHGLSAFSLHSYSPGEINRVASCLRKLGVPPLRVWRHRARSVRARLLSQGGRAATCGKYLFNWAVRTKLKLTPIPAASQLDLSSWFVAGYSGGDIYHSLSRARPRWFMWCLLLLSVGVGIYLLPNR

O=c1ccn([C@@H]2O[C@H](CO)[C@@H](F)[C@H]2O)c(=O)[nH]1 [Synthetic Example 1, 3′-deoxy-3′-fluorouridine]
detection limit dilution (fold) of an HCV genome (Hepatitis C Virus (HCV); 1.0 μM added, FIG. 1, negative control detected up to 30-fold or 100-fold dilution): up to 3-fold or 10-fold
yield of total RNA for each of the samples (injury on the cells) (MT-2C cells): little or no alteration
inhibitory activity on proximate viruses of the hepatitis C virus [1]: only a low inhibitory activity

O=c1[nH]c(=O)n([C@@H]2O[C@H](CO)[C@@H](F)[C@H]2O)cc1F [Synthetic Example 2, 3′-deoxy-5,3′-difluorouridine]
yield of total RNA for each of the samples (injury on the cells) (MT-2C cells): little or no alteration

O=c1ccn([C@H]2O[C@@H](CO)[C@H](F)[C@@H]2O)c(=O)[nH]1 [Synthetic Example 10, 1-(3′-deoxy-3′-fluoro-β-L-ribofuranosyl)uracil]
detection of HCV genome in diluted RT product (Hepatitis C Virus (HCV); 1 μM added): could not be detected, except for one sample diluted to 10-fold
detection of HCV genome in diluted RT product (Hepatitis C Virus (HCV); 10 μM added): could not be detected, except for one sample diluted to 10-fold
yield of total RNA for each of the samples (injury on the cells) (MT-2C cells): little or no alteration

O=c1[nH]c(=O)n([C@H]2O[C@@H](CO)[C@H](F)[C@@H]2O)cc1F [Synthetic Example 11, 1-(3′-deoxy-5,3′-difluoro-β-L-ribofuranosyl)uracil]
detection of HCV genome in diluted RT product (Hepatitis C Virus (HCV); 1 μM added): could not be detected, except for one sample diluted to 10-fold
detection of HCV genome in diluted RT product (Hepatitis C Virus (HCV); 10 μM added): could not be detected, except for one sample diluted to 10-fold
yield of total RNA for each of the samples (injury on the cells) (MT-2C cells): little or no alteration

O=c1ccn([C@@H]2O[C@H](COP(=O)(O)OP(=O)(O)OP(=O)(O)O)[C@@H](F)[C@H]2O)c(=O)[nH]1 [Synthetic Example 12, 3′-deoxy-3′-fluorouridine 5′-triphosphate]
IC50 (HCV RNA polymerase): 0.3 µM

O=c1[nH]c(=O)n([C@@H]2O[C@H](COP(=O)(O)OP(=O)(O)OP(=O)(O)O)[C@@H](F)[C@H]2O)cc1F [Synthetic Example 13, 3′-deoxy-5,3′-difluorouridine 5′-triphosphate]
IC50 (HCV RNA polymerase): 1 µM

O=c1ccn([C@@H]2O[C@H](COP(=O)(O)OP(=O)(O)OP(=O)(O)O)[C@@H](F)[C@H]2O)c(=S)[nH]1 [Synthetic Example 19, 3′-deoxy-3′-fluoro-2-thiouridine 5′-triphosphate]
IC50 (HCV RNA polymerase): 3 µM

O=c1ccn([C@H]2O[C@@H](COP(=O)(O)OP(=O)(O)OP(=O)(O)O)[C@H](F)[C@@H]2O)c(=O)[nH]1 [Synthetic Example 21, 1-(3′-deoxy-3′-fluoro-β-L-ribofuranosyl)uracil 5′-triphosphate]
IC50 (HCV RNA polymerase): 3 µM

O=c1[nH]c(=O)n([C@H]2O[C@@H](COP(=O)(O)OP(=O)(O)OP(=O)(O)O)[C@H](F)[C@@H]2O)cc1F [Synthetic Example 22, 1-(3′-deoxy-5,3′-fluoro-β-L-ribofuranosyl)uracil 5′-triphosphate]
IC50 (HCV RNA polymerase): 10 µM

interferon
efficacy (hepatitis C): not more than 30%
